Data as given in patent publication US10858356B2, “Pyrazolopyridine derivative having GLP-1 receptor agonist effect” (Chugai Seiyaku Kabushiki Kaisha, priority 2016, dated 2020).

molecular target: human GLP1R (Homo sapiens (Human), UniProt P43220); test: In vitro cAMP signal activation in human GLP1R stably-expressing cell line (hGLP1R-HEK293); format: cell-based; conditions: cAMP concentration in hGLP1R-HEK293; 100% = 1 nM human GLP-1 (7-37)
Sequence (P43220 24-463): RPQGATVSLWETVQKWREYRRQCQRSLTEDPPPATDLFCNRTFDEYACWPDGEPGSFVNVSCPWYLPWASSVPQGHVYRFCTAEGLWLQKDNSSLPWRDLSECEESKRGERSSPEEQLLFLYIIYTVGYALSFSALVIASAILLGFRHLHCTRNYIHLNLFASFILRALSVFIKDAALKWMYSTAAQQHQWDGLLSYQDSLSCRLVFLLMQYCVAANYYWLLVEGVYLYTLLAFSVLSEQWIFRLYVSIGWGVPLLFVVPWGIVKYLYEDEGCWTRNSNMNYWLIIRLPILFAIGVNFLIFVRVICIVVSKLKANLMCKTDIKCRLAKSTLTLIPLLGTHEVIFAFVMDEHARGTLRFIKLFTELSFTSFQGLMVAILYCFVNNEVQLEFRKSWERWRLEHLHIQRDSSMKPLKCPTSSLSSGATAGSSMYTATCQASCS

In order of rising EC50:
1. COCCn1ncc2cc(-n3ccn(-c4c5c(nn4-c4cc(C)c(F)c(C)c4)CCN(C(=O)c4cc6cc(-c7ccnc(OC)c7C)ccc6n4[C@@]4(c6noc(=O)[nH]6)C[C@@H]4C)[C@H]5C)c3=O)ccc21 [Example 11, 3-[(1S,2S)-1-[2-[(4S)-2-(4-fluoro-3,5-dimethylphenyl)-3-[3-[1-(2-methoxyethyl)indazol-5-yl]-2-oxoimidazol-1-yl]-4-methyl-6,7-dihydro-4H-pyrazolo[4,3-c]pyridine-5-carbonyl]-5-(2-methoxy-3-methylpyridin-4-yl)indol-1-yl]-2-methylcyclopropyl]-4H-1,2,4-oxadiazol-5-one]  1.1 nM
2. Cc1cc(-n2nc3c(c2-n2ccn(-c4ccc5c(cnn5C)c4)c2=O)CN(C(=O)c2cc4cc([C@H]5CCOC(C)(C)C5)ccc4n2[C@@]2(c4noc(=O)[nH]4)C[C@@H]2C)CC3)cc(C)c1F [compound 59, 3-[(1S,2S)-1-[5-[(4S)-2,2-dimethyloxan-4-yl]-2-[2-(4-fluoro-3,5-dimethylphenyl)-3-[3-(1-methylindazol-5-yl)-2-oxoimidazol-1-yl]-6,7-dihydro-4H-pyrazolo[4,3-c]pyridine-5-carbonyl]indol-1-yl]-2-methylcyclopropyl]-4H-1,2,4-oxadiazol-5-one]  1.5 nM
3. Cc1cc(-n2nc3c(c2-n2ccn(-c4ccc5c(cnn5C)c4F)c2=O)[C@H](C)N(C(=O)c2cc4cc(C5CCOCC5)ccc4n2[C@@]2(c4noc(=O)[nH]4)C[C@@H]2C)CC3)cc(C)c1F [Example 23, 3-[(1S,2S)-1-[2-[(4S)-2-(4-fluoro-3,5-dimethylphenyl)-3-[3-(4-fluoro-1-methylindazol-5-yl)-2-oxoimidazol-1-yl]-4-methyl-6,7-dihydro-4H-pyrazolo[4,3-c]pyridine-5-carbonyl]-5-(oxan-4-yl)indol-1-yl]-2-methylcyclopropyl]-4H-1,2,4-oxadiazol-5-one]  1.8 nM
4. COCCn1ncc2c(F)c(-n3ccn(-c4c5c(nn4-c4ccc(F)c(C)c4)CCN(C(=O)c4cc6cc(C7CCOCC7)ccc6n4[C@@]4(c6noc(=O)[nH]6)C[C@@H]4C)[C@H]5C)c3=O)ccc21 [Example 47, 3-[(1S,2S)-1-[2-[(4S)-3-[3-[4-fluoro-1-(2-methoxyethyl)indazol-5-yl]-2-oxoimidazol-1-yl]-2-(4-fluoro-3-methylphenyl)-4-methyl-6,7-dihydro-4H-pyrazolo[4,3-c]pyridine-5-carbonyl]-5-(oxan-4-yl)indol-1-yl]-2-methylcyclopropyl]-4H-1,2,4-oxadiazol-5-one]  2 nM
5. Cc1cc(-n2nc3c(c2-n2ccn(-c4ccc5c(c4)CCOC5(C)C)c2=O)[C@H](C)N(C(=O)c2cc4cc(C5CCOCC5)ccc4n2[C@@]2(c4noc(=O)[nH]4)C[C@@H]2C)CC3)cc(C)c1F [Example 24, 3-[(1S,2S)-1-[2-[(4S)-3-[3-(1,1-dimethyl-3,4-dihydroisochromen-6-yl)-2-oxoimidazol-1-yl]-2-(4-fluoro-3,5-dimethylphenyl)-4-methyl-6,7-dihydro-4H-pyrazolo[4,3-c]pyridine-5-carbonyl]-5-(oxan-4-yl)indol-1-yl]-2-methylcyclopropyl]-4H-1,2,4-oxadiazol-5-one]  2.5 nM
6. Cc1cc(-n2nc3c(c2-n2ccn(-c4ccc5c(cnn5C)c4Cl)c2=O)[C@H](C)N(C(=O)c2cc4cc([C@H]5CCOC(C)(C)C5)ccc4n2[C@@]2(c4noc(=O)[nH]4)C[C@@H]2C)CC3)ccc1F [Example 49, 3-[(1S,2S)-1-[2-[(4S)-3-[3-(4-chloro-1-methylindazol-5-yl)-2-oxoimidazol-1-yl]-2-(4-fluoro-3-methylphenyl)-4-methyl-6,7-dihydro-4H-pyrazolo[4,3-c]pyridine-5-carbonyl]-5-[(4S)-2,2-dimethyloxan-4-yl]indol-1-yl]-2-methylcyclopropyl]-4H-1,2,4-oxadiazol-5-one]  3.8 nM
